In publication PMC3679022, “A Cancer Specific Cell-Penetrating Peptide, BR2, for the Efficient Delivery of an scFv into Cancer Cells” (PLoS ONE, 2013):

Tested on: cancer cells (HeLa, HCT116 and B16/F10)
Test: Confocal laser scanning microscopy of FITC-labeled peptide uptake, cancer cells
Assay type: cell-based, human, mouse
Conditions: FITC-labeled peptide 5 µM, 30 min, 37°C, live unfixed cells
Procedure: To investigate the cell-penetrating ability and the intracellular distribution of the internalized peptides, live confocal microscopy was performed on three cancer lines (HeLa, HCT116 and B16/F10) and three normal cell lines (HaCat, BJ and NIH 3T3). Briefly, cells (2×10^5) were plated on a glass coverslip placed in a 6-well plate, grown overnight, and then incubated with FITC-labeled peptides (5 µM for each cell line) for 30 min. The cells were then rinsed three times with phosphate buffered saline (PBS, pH 7.4), and mounted on microscope slides with fluorescence mounting solution (Dako Corp, Carpinteria, CA). Colocalization of BR2 with lysosomes was observed by using LysoTracker Red DND-99 (Molecular Probe, Eugene, OR). To avoid the effects of fixation artifacts, involving both methanol and paraformaldehyde, cells were not fixed, [27]. The distribution of FITC-labeled peptides was analyzed using a confocal scanning laser Zeiss LSM 510 microscope (Jena, Germany) equipped with a 40× and 20× objective. Fluorophores were excited with an argon laser (488 nm) for FITC and a HeNe laser (543 nm) for LysoTracker Red.
(B,C) In vitro cytotoxicity of peptides.

For RAGLQFPVGRLLRRLLR [BR2], which “cellular uptake (confocal microscopy)” value is on record?
Its value is “readily internalized”.
